From the Kinase Knowledgebase extract (Sharma et al. 2016) come the findings set out here.

Molecules are shown by their SMILES.

One assay addresses CDK2 (UniProt P24941). Description: Enzyme Assay.
Conditions: not given
`Cn1cncc1CNS(=O)(=O)c1ccc(Nc2nc(N)c(C(=O)c3c(F)cccc3F)s2)cc1`: the inhibition constant Ki amounted to 6.9 nM.

`CC(C)(O)CCCCNS(=O)(=O)c1ccc(Nc2nc(N)c(C(=O)c3c(F)cccc3F)s2)cc1` yielded a Ki of 0.48 nM. Still for that read-out and setting: then `Nc1nc(Nc2ccc(S(=O)(=O)NCc3cc4ccccc4o3)cc2)sc1C(=O)c1c(F)cccc1F`, with 4.6 nM; and `Nc1nc(Nc2ccc(S(=O)(=O)NCCCc3ccccc3)cc2)sc1C(=O)c1c(F)cccc1F`, with 3.6 nM. Consider `Cc1cc(F)c(C(=O)c2sc(Nc3ccc(S(=O)(=O)NCc4ccc(C)o4)cc3)nc2N)c(F)c1`, for which the inhibition constant Ki is less than 10 nM. On the same count and under the same terms, then `CCCOCCNS(=O)(=O)c1ccc(Nc2nc(N)c(C(=O)c3c(F)cccc3F)s2)cc1`, with less than 5 nM; and `CC(C)CCCCNS(=O)(=O)c1ccc(Nc2nc(N)c(C(=O)c3c(F)cccc3F)s2)cc1`, with 3.7 nM. The same measure, in the same setting: then `CCOC(=O)CNS(=O)(=O)c1ccc(Nc2nc(N)c(C(=O)c3c(F)cccc3F)s2)cc1`, with 4.9 nM; and `Nc1nc(Nc2ccc(S(=O)(=O)NCC3CCNCC3)cc2)sc1C(=O)c1c(F)cccc1F`, with 13 nM; and `Nc1nc(Nc2ccc(S(=O)(=O)NCCc3cccc(Cl)c3)cc2)sc1C(=O)c1c(F)cccc1F`, with less than 10 nM.

The assay is the same for the next values; noted with them: concentration not given here.
Take `COCCN(CCOC)S(=O)(=O)c1ccc(Nc2nc(N)c(C(=O)c3c(F)cccc3F)s2)cc1`: the inhibition amounted to 8%. On the same count and under the same terms, then `C=CCN1CCN(S(=O)(=O)c2ccc(Nc3nc(N)c(C(=O)c4c(F)cccc4F)s3)cc2)CC1`, with 6%; and `CN(CCO)S(=O)(=O)c1ccc(Nc2nc(N)c(C(=O)c3c(F)cccc3F)s2)cc1`, with 28%; and `CN(CCCCCCO)S(=O)(=O)c1ccc(Nc2nc(N)c(C(=O)c3c(F)cccc3F)s2)cc1`, with 28%.

For the compound `CN1CCC(N(C)S(=O)(=O)c2ccc(Nc3nc(N)c(C(=O)c4c(F)cccc4F)s3)cc2)CC1`, the inhibition was found to be 9%. With `COC(=O)CN(C)S(=O)(=O)c1ccc(Nc2nc(N)c(C(=O)c3c(F)cccc3F)s2)cc1`, the inhibition is 18%. Same read-out and setting: then `CN(C)CCN(C)S(=O)(=O)c1ccc(Nc2nc(N)c(C(=O)c3c(F)cccc3F)s2)cc1`, with 26%; and `CN(CCc1ccccn1)S(=O)(=O)c1ccc(Nc2nc(N)c(C(=O)c3c(F)cccc3F)s2)cc1`, with 16%. Same read-out and setting: then `CN(CCC#N)S(=O)(=O)c1ccc(Nc2nc(N)c(C(=O)c3c(F)cccc3F)s2)cc1`, with 27%. On to `CN(CCc1ccccc1)S(=O)(=O)c1ccc(Nc2nc(N)c(C(=O)c3c(F)cccc3F)s2)cc1`, for which the inhibition worked out at 9%. The same measure, in the same setting: then `CCN(CC)CCN(C)S(=O)(=O)c1ccc(Nc2nc(N)c(C(=O)c3c(F)cccc3F)s2)cc1`, with 27%; and `Nc1nc(Nc2ccc(S(=O)(=O)N(CCO)CCO)cc2)sc1C(=O)c1c(F)cccc1F`, with -1%.

In the case of `Nc1nc(Nc2ccc(S(=O)(=O)N3CCOCC3)cc2)sc1C(=O)c1c(F)cccc1F`, the inhibition was determined as 27%.

For the compound `CCN(CC)CCCN(C)S(=O)(=O)c1ccc(Nc2nc(N)c(C(=O)c3c(F)cccc3F)s2)cc1`, the inhibition came to 21%. Same read-out and setting: then `N#CCCN(C1CC1)S(=O)(=O)c1ccc(Nc2nc(N)c(C(=O)c3c(F)cccc3F)s2)cc1`, with 8%. On the same count and under the same terms, then `CN1CCN(S(=O)(=O)c2ccc(Nc3nc(N)c(C(=O)c4c(F)cccc4F)s3)cc2)CC1`, with 18%; and `CN(Cc1cccnc1)S(=O)(=O)c1ccc(Nc2nc(N)c(C(=O)c3c(F)cccc3F)s2)cc1`, with 12%.

For `CN(CCc1ccncc1)S(=O)(=O)c1ccc(Nc2nc(N)c(C(=O)c3c(F)cccc3F)s2)cc1`, the inhibition came to 19%. The same measure, in the same setting: then `Nc1nc(Nc2ccc(S(=O)(=O)N3CCC(CCO)CC3)cc2)sc1C(=O)c1c(F)cccc1F`, with 21%; and `CN1CCC(N(C)S(=O)(=O)c2ccc(Nc3nc(N)c(C(=O)c4c(F)cccc4F)s3)cc2)C1` (stereo unspecified), with 22%; and `Nc1nc(Nc2ccc(S(=O)(=O)N3CCN(c4ccc(F)cc4)CC3)cc2)sc1C(=O)c1c(F)cccc1F`, with 37%. Still for that read-out and setting: then `CN(CC(O)CO)S(=O)(=O)c1ccc(Nc2nc(N)c(C(=O)c3c(F)cccc3F)s2)cc1` (stereo unspecified), with 15%; and `Nc1nc(Nc2ccc(S(=O)(=O)N3CCN(CC(=O)N4CCCC4)CC3)cc2)sc1C(=O)c1c(F)cccc1F`, with 14%. For the compound `COCCN(C)S(=O)(=O)c1ccc(Nc2nc(N)c(C(=O)c3c(F)cccc3F)s2)cc1`, the inhibition is 4%. On the same count and under the same terms, then `CN(CCC1OCCO1)S(=O)(=O)c1ccc(Nc2nc(N)c(C(=O)c3c(F)cccc3F)s2)cc1`, with 20%; and `CCN(CCO)S(=O)(=O)c1ccc(Nc2nc(N)c(C(=O)c3c(F)cccc3F)s2)cc1`, with 24%; and `Nc1nc(Nc2ccc(S(=O)(=O)N3CCN(CCN4CCOCC4)CC3)cc2)sc1C(=O)c1c(F)cccc1F`, with 11%. For `NC(=O)C1CCN(S(=O)(=O)c2ccc(Nc3nc(N)c(C(=O)c4c(F)cccc4F)s3)cc2)CC1`, the inhibition was 40%. Same read-out and setting: then `Nc1nc(Nc2ccc(S(=O)(=O)N3CCSCC3)cc2)sc1C(=O)c1c(F)cccc1F`, with 23%; and `Nc1nc(Nc2ccc(S(=O)(=O)N3CCCC(CO)C3)cc2)sc1C(=O)c1c(F)cccc1F` (stereo unspecified), with 30%. Same read-out and setting: then `Nc1nc(Nc2ccc(S(=O)(=O)N3CCN(CCOCCO)CC3)cc2)sc1C(=O)c1c(F)cccc1F`, with -1%.
